These compounds were tested against SOS1:KRAS (G12C) interaction (Homo sapiens (Human), UniProt Q07889) (assay: SOS1-KRas(G12C) FRET Assay). Conditions: 0.5 nM His10-SOS1 (res. 564-1049), 2.5 nM GST-KRAS (res. 1-169, G12C); read-out: SOS-KRas(G12C) FRET IC50.
SOS1:KRAS (G12C) interaction, sequence (Q07889 564-1049, stated change not applied): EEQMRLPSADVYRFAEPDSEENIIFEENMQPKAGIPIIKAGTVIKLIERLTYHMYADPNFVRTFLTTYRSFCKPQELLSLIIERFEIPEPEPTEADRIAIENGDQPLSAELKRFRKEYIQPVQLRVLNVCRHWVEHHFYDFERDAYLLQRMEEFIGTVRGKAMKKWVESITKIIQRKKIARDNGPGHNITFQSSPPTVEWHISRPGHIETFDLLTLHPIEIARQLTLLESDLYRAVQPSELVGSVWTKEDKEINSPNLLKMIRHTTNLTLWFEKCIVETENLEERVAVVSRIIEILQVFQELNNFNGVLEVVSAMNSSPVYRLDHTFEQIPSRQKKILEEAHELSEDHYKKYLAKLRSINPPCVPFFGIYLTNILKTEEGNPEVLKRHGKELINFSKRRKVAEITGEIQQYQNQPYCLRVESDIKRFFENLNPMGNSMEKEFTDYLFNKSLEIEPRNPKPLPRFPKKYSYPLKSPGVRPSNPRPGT
Assay type: binding
Experimental: Inhibition of the SOS1:KRAS interaction was measured using purified GST-tagged KRAS (res. 1-169, G12C, purified based on Hillig, et al., Proc Natl Acad Sci USA (2019); 116(7):2551-2560) and recombinant His10-SOS1 (res. 564-1049; purified based on Hillig, et al.). The final assay was performed at 20 uL with 0.5 nM SOS1 protein and 2.5 nM KRAS protein in a buffer of PBS, 0.1% BSA, 5 mM MgCl2, 0.0025% Igepal, 100 mM KF, 5 mM DTT in a white 384 square well OptiPlate (PerkinElmer, Cat. 6007290). A 2× KRAS working solution was prepared in an assay buffer containing 5 nM GST-KRAS G12C and 2 nM anti-GST-Eu(K) (Cisbio, Cat. 61GSTKLA) and pre-incubated for 15 minutes at 25° C. Compounds were serially diluted in 100% DMSO from 2 mM (positive control, compound I-13, PCT Publ. No. WO2018/115380) or 20 mM and then diluted 1:20 in assay buffer before incubation with a solution of SOS1 protein mixed 1:5 with anti-6His-XL665 FRET donor (Cisbio, Cat. 61HISXL) for 15 minutes at 25° C. before addition of 2× KRAS working solution. The final DMSO concentration is 0.5%. Plates were incubated at RT for 2 hrs before the FRET signal was measured using Envision at emission 665 nm and 615 nm. FRET signal was converted to percentage of protein-protein interaction using the following equation:
[formula] • C: signal with compound treatment • P: signal for positive control (DMSO) • N: signal for negative control (no SOS1 added) • IC50 and Hill coefficients were obtained using Graph Pad Prism (Graph Pad software, Inc, USA) with non-linear regression analysis.
Work on `C[C@@H](Nc1nn(C)c(=O)c2cc(=O)n(C34CC(C(F)(F)F)(C3)C4)cc12)c1cccc(C(F)F)c1F` [Example 155, (R)-4-((1-(3-(difluoromethyl)-2-fluorophenyl)ethyl)amino)-2-methyl-6-(3-(trifluoromethyl)bicyclo[1.1.1]pentan-1-yl)pyrido[3,4-d]pyridazine-1,7(2H,6H)-dione] yielded an IC50 of 159 nM. With `CC(=O)N1CC(C)(n2cc3c(N[C@H](C)c4cccc(C(F)F)c4F)nn(C)c(=O)c3cc2=O)C1` [Example 149, (R)-6-(1-acetyl-3-methylazetidin-3-yl)-4-((1-(3-(difluoromethyl)-2-fluorophenyl)ethyl)amino)-2-methylpyrido[3,4-d]pyridazine-1,7(2H,6H)-dione] the IC50 was 34.3 nM. For `C[C@@H](Nc1nn(C)c(=O)c2cc(=O)n([C@H]3C[C@@H]3c3cncc(F)c3)cc12)c1cccc(C(F)F)c1F` (single isomer, unassigned) [Example 93], the IC50 was 60.8 nM. `CC(=O)N1CC[C@@](C)(n2cc3c(N[C@H](C)c4cccc(C(F)F)c4F)nn(C)c(=O)c3cc2=O)C1` (single isomer, unassigned) [Example 143] gave an IC50 of 7.8 nM. In the case of `C[C@@H](Nc1nn(C)c(=O)c2cc(=O)n([C@@H]3CC34CC4)cc12)c1cccc(C(F)F)c1F` (single isomer, unassigned) [Example 128], the IC50 is reported as 287 nM. For `C[C@@H](Nc1nn(C)c(=O)c2cc(=O)n([C@@H]3C[C@H]3c3cncc(F)c3)cc12)c1cccc(C(F)F)c1F` (single isomer, unassigned) [Example 94], the IC50 was 378 nM. Work on `C[C@@H](Nc1nn(C)c(=O)c2cc(=O)n(C3CC3)cc12)c1cccc2ccccc12` [Example 1, (R)-6-cyclopropyl-2-methyl-4-((1-(naphthalen-1-yl)ethyl)amino)-2,6-dihydropyrido[3,4-d]pyridazine-1,7-dione] yielded an IC50 of 1030 nM. Compound `C[C@@H](Nc1nn(C)c(=O)c2cc(=O)n(C3(C(C)(F)F)CC3)cc12)c1cccc(C(F)F)c1F` [Example 126, (R)-6-(1-(1,1-difluoroethyl)cyclopropyl)-4-((1-(3-(difluoromethyl)-2-fluorophenyl)ethyl)amino)-2-methyl-2,6-dihydropyrido[3,4-d]pyridazine-1,7-dione] has an IC50 of 67.8 nM. `C[C@@H](Nc1nn(C)c(=O)c2cc(=O)n(C3(C(F)(F)F)COC3)cc12)c1cccc(C(F)F)c1F` [Example 156, (R)-4-((1-(3-(difluoromethyl)-2-fluorophenyl)ethyl)amino)-2-methyl-6-(3-(trifluoromethyl)oxetan-3-yl)-2,6-dihydropyrido[3,4-d]pyridazine-1,7-dione] showed an IC50 of 66.6 nM. Work on `C[C@@H](Nc1nn(C)c(=O)c2cc(=O)n(C3(CN4CC(F)C4)CC3)cc12)c1cccc(C(F)F)c1F` [Example 124, (R)-4-((1-(3-(difluoromethyl)-2-fluorophenyl)ethyl)amino)-6-(1-((3-fluoroazetidin-1-yl)methyl)cyclopropyl)-2-methylpyrido[3,4-d]pyridazine-1,7(2H,6H)-dione] yielded an IC50 of 886 nM. Work on `C[C@@H](Nc1nn(C)c(=O)c2cc(=O)n(C3(CO)CC3)cc12)c1cccc(C(F)F)c1F` [Example 123, (R)-4-((1-(3-(difluoromethyl)-2-fluorophenyl)ethyl)amino)-6-(1-(hydroxymethyl)cyclopropyl)-2-methylpyrido[3,4-d]pyridazine-1,7(2H,6H)-dione] yielded an IC50 of 366 nM. For `Cn1nc(N[C@@H](c2cccc(C(F)(F)F)c2)C(F)F)c2cn(C3CC3)c(=O)cc2c1=O` [Example 111, (S)-6-cyclopropyl-4-((2,2-difluoro-1-(3-(trifluoromethyl)phenyl)ethyl)amino)-2-methylpyrido[3,4-d]pyridazine-1,7(2H,6H)-dione], the IC50 was 631 nM. With `C[C@@H](Nc1nn(C)c(=O)c2c(OC3CC(F)(F)C3)c(=O)n(C3(C(F)F)CC3)cc12)c1cccc(C(F)F)c1F` [Example 87, (R)-8-(3,3-difluorocyclobutoxy)-4-((1-(3-(difluoromethyl)-2-fluorophenyl)ethyl)amino)-6-(1-(difluoromethyl)cyclopropyl)-2-methylpyrido[3,4-d]pyridazine-1,7(2H,6H)-dione] the IC50 was 118 nM. With `C[C@@H](Nc1nn(C)c(=O)c2cc(=O)n([C@]3(C(F)F)CCOC3)cc12)c1cccc(C(F)F)c1F` (single isomer, unassigned) [Example 120] the IC50 was 19.9 nM. `C[C@H](Nc1nn(C)c(=O)c2cc(=O)n(C3(C(F)F)CC3)cc12)c1cccc(C(F)(F)c2ccncc2)c1F` [Example 175, (S)-4-((1-(3-(difluoro(pyridin-4-yl)methyl)-2-fluorophenyl)ethyl)amino)-6-(1-(difluoromethyl)cyclopropyl)-2-methyl-2,6-dihydropyrido[3,4-d]pyridazine-1,7-dione] showed an IC50 of 4490 nM. `C[C@@H](Nc1nn(C)c(=O)c2cc(=O)n([C@]3(C(F)(F)F)CCOC3)cc12)c1cccc(C(F)F)c1F` (single isomer, unassigned) [Example 165] gave an IC50 of 424 nM. Compound `C[C@@H](Nc1nn(C)c(=O)c2cc(=O)n(C3(C(F)F)CC3)cc12)c1cccc2c1OCCC2(F)F` [Example 180, (R)-4-((1-(4,4-difluorochroman-8-yl)ethyl)amino)-6-(1-(difluoromethyl)cyclopropyl)-2-methyl-2,6-dihydropyrido[3,4-d]pyridazine-1,7-dione] has an IC50 of 179 nM. `C[C@H](Nc1nn(C)c(=O)c2cc(=O)n(C3(C(F)F)CC3)cc12)c1cccc2ccnn12` [Example 115, (S)-6-(1-(difluoromethyl)cyclopropyl)-2-methyl-4-((1-(pyrazolo[1,5-a]pyridin-7-yl)ethyl)amino)-2,6-dihydropyrido[3,4-d]pyridazine-1,7-dione] gave an IC50 of over 10000 nM. In the case of `CC(=O)N1CC[C@](C)(n2cc3c(N[C@H](C)c4cccc(C(F)F)c4F)nn(C)c(=O)c3cc2=O)C1` (single isomer, unassigned) [Example 144], the IC50 is reported as 209 nM. With `C[C@@H](Nc1nn(C)c(=O)c2cc(=O)n(C3(C)CN(C(=O)C4CC4)C3)cc12)c1cccc(C(F)F)c1F` [Example 150, (R)-6-(1-(cyclopropanecarbonyl)-3-methylazetidin-3-yl)-4-((1-(3-(difluoromethyl)-2-fluorophenyl)ethyl)amino)-2-methyl-2,6-dihydropyrido[3,4-d]pyridazine-1,7-dione] the IC50 was 5.5 nM. Compound `CC(=O)N1CC[C@](n2cc3c(N[C@H](C)c4cccc5c(F)coc45)nn(C)c(=O)c3cc2=O)(C(F)(F)F)C1` (single isomer, unassigned) [Example 173] has an IC50 of 2790 nM. `C[C@@H](Nc1nn(C)c(=O)c2cc(=O)n(C3CC3)cc12)c1cccc(C(F)(F)CO)c1F` [Example 104, (R)-6-cyclopropyl-4-((1-(3-(1,1-difluoro-2-hydroxyethyl)-2-fluorophenyl)ethyl)amino)-2-methyl-2,6-dihydropyrido[3,4-d]pyridazine-1,7-dione] was tested, and the IC50 was 37 nM. For `CC(=O)N1C[C@H]2C[C@@]2(n2cc3c(N[C@H](C)c4cccc(C(F)F)c4F)nn(C)c(=O)c3cc2=O)C1` (single isomer, unassigned) [Example 139], the IC50 was 120 nM. `C[C@@H](Nc1nn(C)c(=O)c2cc(=O)n(C3(C)CNC3)cc12)c1cccc(C(F)F)c1F` [Example 152, (R)-4-((1-(3-(difluoromethyl)-2-fluorophenyl)ethyl)amino)-2-methyl-6-(3-methylazetidin-3-yl)pyrido[3,4-d]pyridazine-1,7(2H,6H)-dione] gave an IC50 of 248 nM. For `C[C@@H](Nc1nn(C)c(=O)c2cc(=O)n(C3(C(F)F)CC3)cc12)c1cccc2c(F)coc12` [Example 163, (R)-6-(1-(difluoromethyl)cyclopropyl)-4-((1-(3-fluorobenzofuran-7-yl)ethyl)amino)-2-methyl-2,6-dihydropyrido[3,4-d]pyridazine-1,7-dione], the IC50 was 75.6 nM. Compound `COCC(F)(F)c1cccc([C@H](C)Nc2nn(C)c(=O)c3cc(=O)n(C4(C(F)F)CC4)cc23)c1F` [Example 162, 4-[[(1S)-1-[3-(1,1-difluoro-2-methoxy-ethyl)-2-fluoro-phenyl]ethyl]amino]-6-[1-(difluoromethyl)cyclopropyl]-2-methyl-pyrido[3,4-d]pyridazine-1,7-dione] has an IC50 of over 10000 nM. With `Cc1cnc(C(F)(F)c2cccc([C@H](C)Nc3nn(C)c(=O)c4cc(=O)n(C5(C(F)F)CC5)cc34)c2F)cn1` [Example 177, (S)-4-((1-(3-(difluoro(5-methylpyrazin-2-yl)methyl)-2-fluorophenyl)ethyl)amino)-6-(1-(difluoromethyl)cyclopropyl)-2-methyl-2,6-dihydropyrido[3,4-d]pyridazine-1,7-dione] the IC50 was over 10000 nM. `Cc1c([C@@H](C)Nc2nn(C)c(=O)c3cc(=O)n(C4CCN(C)CC4)cc23)cccc1C(F)(F)F` [Example 23, (R)-2-methyl-4-((1-(2-methyl-3-(trifluoromethyl)phenyl)ethyl)amino)-6-(1-methylpiperidin-4-yl)-2,6-dihydropyrido[3,4-d]pyridazine-1,7-dione] showed an IC50 of 1950 nM.
